Results published in US20110275583A1, “Synergistic active compound combinations” (priority 2010, published 2011).
Where two headings read alike, the source gives them in different places.

How the values were obtained:
Type in all cases: in vivo
[1] = system: green peach aphid (Myzus persicae); test: Myzus persicae test (spray treatment of infested cabbage leaves)
Text: (§1) The expected action for a given combination of two active compounds can be calculated as follows, using the formula of S. R. Colby, Weeds 15 (1967), 20-22: • If • X is the kill rate, expressed as % of the untreated control, when employing active compound A at an application rate of m g/ha or in a concentration of in ppm, • Y is the kill rate, expressed as % of the untreated control, when employing active compound B at an application rate of n g/ha or in a concentration of n ppm and • E is the kill rate, expressed as % of the untreated control, when employing active compounds A and B at application rates of m and n g/ha or in a concentration of m and n ppm, • then
(§2) If the actual kill rate exceeds the calculated value, the action of the combination is superadditive, i.e. a synergistic effect is present. In this case, the actually observed kill rate must exceed the value calculated using the above formula for the expected kill rate (E).
(§3) Solvent: 78 parts by weight of acetone • • 1.5 parts by weight of dimethylformamide
(§4) Emulsifier: 0.5 part by weight of alkylaryl polyglycol ether
(§5) To produce a suitable preparation of active compound, 1 part by weight of active compound is mixed with the stated amounts of solvent and emulsifier, and the concentrate is diluted with emulsifier-containing water to the desired concentration.
Cabbage leaves (Brassica oleracea) which are heavily infested by the green peach aphid (Myzus persicae) are treated by spraying with the active compound preparation of the desired concentration.
After the desired period of time, the kill in % is determined. 100% means that all of the aphids have been killed; 0% means that none of the aphids have been killed. The kill rates determined are entered into Colby's formula.

[2] = system: larvae of the mustard beetle (Phaedon cochleariae); test: Phaedon cochleariae larvae test (sprayed cabbage leaves); details: single active compound
Text: as §1, §2, §3, §4, §5
Cabbage leaves (Brassica oleracea) are treated by spraying with the active compound preparation of the desired concentration and populated with larvae of the mustard beetle (Phaedon cochleariae) while the leaves are still moist.
After the desired period of time, the kill in % is determined. 100% means that all beetle larvae have been killed; 0% means that none of the beetle larvae have been killed. The kill rates determined are entered into Colby's formula.

[3] = system: armyworm (Spodoptera frugiperda); test: Spodoptera frugiperda larvae test (sprayed cabbage leaves); details: single active compound
Text: as §1, §2, §3, §4, §5
Cabbage leaves (Brassica oleracea) are treated by being sprayed with the preparation of active compound of the desired concentration and are populated with the armyworm (Spodoptera frugiperda) while the leaves are still moist.
After the desired period of time, the kill in % is determined. 100% means that all caterpillars have been killed; 0% means that none of the caterpillars have been killed. The kill rates determined are entered, into Colby's formula.

[4] = system: greenhouse red spider mite (Tetranychus urticae); test: Tetranychus test, OP-resistant/spray treatment (bean leaf discs); details: single active compound
Text: as §1, §2, §3, §4, §5
Discs of bean leaves (Phaseolus vulgaris) which are infested by all stages of the greenhouse red spider mite (Tetranychus urticae) are sprayed with an active compound preparation of the desired concentration.
After the desired period of time, the effect in % is determined. 100% means that all of the spider mites have been killed; 0% means that none of the spider mites have been killed.

[5] = Myzus persicae, 24 h, 0.8 g/ha, after 1 d, read-out: Kill in % after 1d
[6] = Phaedon cochleariae, 48 h, 0.8 g/ha, 2 d, read-out: Kill in % after 2 d
[7] = Myzus persicae, 24 h, after 1 d, read-out: Kill in % after 1d
[8] = Tetranychus urticae, foliar, 144 h, 100 g/ha, 6 d, read-out: Kill in % after 6 d
[9] = Spodoptera frugiperda, 144 h, 4 g/ha, 6 d, read-out: Kill in % after 6 d
[10] = Phaedon cochleariae, 144 h, 0.8 g/ha, 6 d, read-out: Kill in % after 6 d
[11] = Tetranychus urticae, foliar, 144 h, 6 d, read-out: Kill in % after 6 d
[12] = Spodoptera frugiperda, 144 h, 0.16 g/ha, 6 d, read-out: Kill in % after 6 d
[13] = Myzus persicae, 144 h, single active compound, 6 d, read-out: Kill in % after 6 d
[14] = Phaedon cochleariae, 48 h, 2 d, read-out: Kill in % after 2 d
[15] = Phaedon cochleariae, 144 h, 6 d, read-out: Kill in % after 6 d
[16] = Tetranychus urticae, foliar, 48 h, 2 d, read-out: Kill in % after 2 d
[17] = Spodoptera frugiperda, 48 h, 2 d, read-out: Kill in % after 2 d
[18] = Spodoptera frugiperda, 144 h, 6 d, read-out: Kill in % after 6 d
[19] = Tetranychus urticae, foliar, 48 h, 100 g/ha, 2 d, read-out: Kill in % after 2 d

`CNC(=O)c1cc(Cl)cc(C)c1NC(=O)c1cc(Br)nn1-c1ncccc1Cl` [chloranthraniliprole, chlorantraniliprole] showed a pest or weed control at 0.8 g/ha [1, 5] of 0%, a pest or weed control at 0.8 g/ha [2, 6] of 67% and a pest or weed control at 4 g/ha ([3]; Spodoptera frugiperda, 48 h, 4 g/ha, 2 d, read-out: Kill in % after 2 d) of 67%.
`CC1(C)[C@H](C(=O)O[C@H](C#N)c2cccc(Oc3ccccc3)c2)[C@@H]1C=C(Br)Br` [deltamethrin] was tested, and the pest or weed control at 0.032 g/ha [1, 7] was 70%, the pest or weed control at 0.8 g/ha [2, 6] was 67% and the pest or weed control at 0.032 g/ha ([3]; Spodoptera frugiperda, 144 h, 0.032 g/ha, 6 d, read-out: Kill in % after 6 d) was 33%.
`CCOP(=S)(OCC)Oc1nc(Cl)c(Cl)cc1Cl` [chlorpyrifos] was tested, and the “Kill in % after 6 d” value ([4]; 100 g/ha, 6 d) was 0% and the “Kill in % after 6 d” value ([3]; 4 g/ha, 6 d) was 0%.
In the case of `N#Cc1nn(-c2c(Cl)cc(C(F)(F)F)cc2Cl)c(N)c1[S+]([O-])C(F)(F)F` (centres unmarked) [fipronil], the pest or weed control at 0.8 g/ha [2, 6] is reported as 50%, the pest or weed control at 100 g/ha [4, 8] is reported as 0% and the pest or weed control at 4 g/ha [3, 9] is reported as 0%.
Compound `CC1(C)C(C=C(Cl)Cl)C1C(=O)OC(C#N)c1ccc(F)c(Oc2ccccc2)c1` (stereo not drawn) [β-cyfluthrin, beta-cyfluthrin] has a pest or weed control at 0.032 g/ha [1, 7] of 0%, a pest or weed control at 0.8 g/ha [2, 10] of 33% and a pest or weed control at 4 g/ha [4, 11] of 0%. The pest or weed control at 0.16 g/ha [3, 12] was 0%.
`Fc1cncc(-c2ncc(-c3cccc(-c4ncccn4)n3)s2)c1` [compound of the formula (I-3)] gave a pest or weed control at 4 g/ha [1, 7] of 0%, a pest or weed control at 20 g/ha [1, 7] of 0% and a pest or weed control at 100 g/ha [1, 7] of 0%. The pest or weed control at 500 g/ha [1, 7] was 0%, the pest or weed control at 4 g/ha [1, 13] was 70% and the pest or weed control at 20 g/ha [1, 13] was 70%. It also gave a pest or weed control at 4 g/ha [2, 14] of 0%, a pest or weed control at 20 g/ha [2, 14] of 0% and a pest or weed control at 100 g/ha [2, 14] of 0%. It also gave a pest or weed control at 500 g/ha [2, 14] of 0%, a pest or weed control at 4 g/ha [2, 15] of 0% and a pest or weed control at 100 g/ha [2, 15] of 0%. For the same compound, the pest or weed control at 500 g/ha [2, 15] was 0%, the pest or weed control at 4 g/ha [4, 16] was 0% and the pest or weed control at 20 g/ha [4, 16] was 0%. For the same compound, the pest or weed control at 500 g/ha [4, 16] was 0%, the pest or weed control at 4 g/ha [4, 11] was 0% and the pest or weed control at 20 g/ha [4, 11] was 0%. It also gave a pest or weed control at 100 g/ha [4, 8] of 0%, a pest or weed control at 500 g/ha [4, 11] of 0% and a pest or weed control at 500 g/ha [3, 17] of 0%. For the same compound, the pest or weed control at 20 g/ha [3, 18] was 0%, the pest or weed control at 100 g/ha [3, 18] was 0% and the pest or weed control at 500 g/ha [3, 18] was 0%.
`CNC(=O)O/N=C/C(C)(C)SC` [aldicarb] gave a pest or weed control at 100 g/ha [4, 19] of 0% and a pest or weed control at 100 g/ha [3, 18] of 0%.
`FC(F)(F)c1ccc(OCCCOc2c(Cl)cc(OCC=C(Cl)Cl)cc2Cl)nc1` [pyridalyl] gave a pest or weed control at 0.8 g/ha ([1]; Myzus persicae, 144 h, 0.8 g/ha, single active compound, 6 d, read-out: Kill in % after 6 d) of 0%, a pest or weed control at 20 g/ha [4, 11] of 10% and a pest or weed control at 4 g/ha [3, 9] of 17%.
Compound `O=C(NC(=O)c1c(F)cccc1F)Nc1cc(Cl)c(OC(F)(F)C(F)C(F)(F)F)cc1Cl` (centres unmarked) [lufenuron] has a pest or weed control at 100 g/ha [2, 15] of 33% and a pest or weed control at 4 g/ha [3, 9] of 0%.
Work on `CC1(C)C(/C=C(\Cl)C(F)(F)F)C1C(=O)OC(C#N)c1cccc(Oc2ccccc2)c1` [L-cyhalothrin, lambda-cyhalothrin] yielded a pest or weed control at 0.032 g/ha [1, 7] of 0%, a pest or weed control at 0.8 g/ha [2, 10] of 33% and a pest or weed control at 0.8 g/ha ([4]; Tetranychus urticae, foliar, 144 h, 0.8 g/ha, 6 d, read-out: Kill in % after 6 d) of 0%. It also gave a pest or weed control at 4 g/ha [4, 11] of 80%, a pest or weed control at 0.16 g/ha [3, 12] of 0% and a pest or weed control at 0.8 g/ha [3, 18] of 50%.
In the case of `c1cnc(-c2cccc(-c3cnc(-c4cccnc4)s3)n2)nc1` [compound of the formula (I-2)], the pest or weed control at 4 g/ha [1, 7] is reported as 0%, the pest or weed control at 20 g/ha [1, 7] is reported as 0% and the pest or weed control at 100 g/ha [1, 7] is reported as 0%. The pest or weed control at 500 g/ha [1, 7] was 0%, the pest or weed control at 4 g/ha [2, 14] was 0% and the pest or weed control at 20 g/ha [2, 14] was 0%. The pest or weed control at 100 g/ha [2, 14] was 0%, the pest or weed control at 500 g/ha [2, 14] was 0% and the pest or weed control at 4 g/ha [2, 15] was 0%. It also gave a pest or weed control at 20 g/ha [2, 15] of 0%, a pest or weed control at 100 g/ha [2, 15] of 0% and a pest or weed control at 500 g/ha [2, 15] of 0%. It also gave a pest or weed control at 4 g/ha [4, 16] of 0%, a pest or weed control at 20 g/ha [4, 16] of 0% and a pest or weed control at 100 g/ha [4, 19] of 0%. For the same compound, the pest or weed control at 500 g/ha [4, 16] was 0%, the pest or weed control at 4 g/ha [4, 11] was 0% and the pest or weed control at 500 g/ha [4, 11] was 0%. For the same compound, the pest or weed control at 20 g/ha [3, 17] was 0%, the pest or weed control at 100 g/ha [3, 17] was 0% and the pest or weed control at 500 g/ha [3, 17] was 0%. It also gave a pest or weed control at 20 g/ha [3, 18] of 0%, a pest or weed control at 100 g/ha [3, 18] of 0% and a pest or weed control at 500 g/ha [3, 18] of 0%.
For `CNC(=O)c1cc(C#N)cc(C)c1NC(=O)c1cc(Br)nn1-c1ncccc1Cl` [Cyazypyr, cyantraniliprole], the pest or weed control at 0.8 g/ha [1, 5] was 0%, the pest or weed control at 0.8 g/ha [2, 6] was 50% and the pest or weed control at 0.16 g/ha ([2]; Phaedon cochleariae, 144 h, 0.16 g/ha, 6 d, read-out: Kill in % after 6 d) was 33%. For the same compound, the pest or weed control at 20 g/ha [4, 16] was 0% and the pest or weed control at 0.8 g/ha [3, 18] was 50%.
`CC1(C)C(C=C(Cl)Cl)C1C(=O)OC(C#N)c1cccc(Oc2ccccc2)c1` (stereo not drawn) [alpha-cypermethrin] showed a pest or weed control at 0.16 g/ha ([1]; Myzus persicae, 24 h, 0.16 g/ha, after 1 d, read-out: Kill in % after 1d) of 0%, a pest or weed control at 4 g/ha [2, 15] of 67% and a pest or weed control at 0.8 g/ha [3, 18] of 33%.
emamectin benzoate was tested, and the “Kill in % after 6 d” value ([1]; 0.16 g/ha, single active compound, 6 d) was 0%, the “Kill in % after 1d” value ([1]; 0.8 g/ha, after 1 d) was 0% and the “Kill in % after 2 d” value ([2]; 0.8 g/ha, 2 d) was 50%. For the same compound, the “Kill in % after 2 d” value ([4]; 0.032 g/ha, 2 d) was 0% and the “Kill in % after 2 d” value ([3]; 0.16 g/ha, 2 d) was 0%.
